In PubChem BioAssay (NCI):
“And” between values parts separate entries of the source, which are not always exact repeats. Equal values may be shown once.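 Five concentrations, 48 hours, 96-well plates. At the GI50, growth is halved. TGI marks complete inhibition of growth.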

Key:
Experiment in all cases: growth of human tumour cells (NCI), 48 h
U251 CNS = tested on: U251 CNS
SK-MEL-2 melanoma = tested on: SK-MEL-2 melanoma
MDA-MB-435 = tested on: MDA-MB-435
NCI/ADR-RES ovarian = tested on: NCI/ADR-RES ovarian
SF-268 CNS = tested on: SF-268 CNS
SK-OV-3 ovarian = tested on: SK-OV-3 ovarian
M14 melanoma = tested on: M14 melanoma
UO-31 renal = tested on: UO-31 renal
DU-145 prostate = tested on: DU-145 prostate
SW-620 colon = tested on: SW-620 colon
A498 renal = tested on: A498 renal
ACHN renal = tested on: ACHN renal
NCI-H522 lung = tested on: NCI-H522 lung
COLO 205 colon = tested on: COLO 205 colon
HOP-62 NSCLC = tested on: HOP-62 NSCLC
HCT-116 colon = tested on: HCT-116 colon
HCC-2998 colon = tested on: HCC-2998 colon
K-562 leukemia = tested on: K-562 leukemia
HT29 colon = tested on: HT29 colon
NCI-H226 lung = tested on: NCI-H226 lung
CCRF-CEM leukemia = tested on: CCRF-CEM leukemia
SNB-75 CNS = tested on: SNB-75 CNS
OVCAR-4 ovarian = tested on: OVCAR-4 ovarian
MALME-3M melanoma = tested on: MALME-3M melanoma
IGROV1 ovarian = tested on: IGROV1 ovarian
SK-MEL-5 melanoma = tested on: SK-MEL-5 melanoma
MOLT-4 leukemia = tested on: MOLT-4 leukemia
RXF 393 renal = tested on: RXF 393 renal
EKVX NSCLC = tested on: EKVX NSCLC
SR leukemia = tested on: SR leukemia
OVCAR-8 ovarian = tested on: OVCAR-8 ovarian
TK-10 renal = tested on: TK-10 renal
HOP-92 NSCLC = tested on: HOP-92 NSCLC
786-0 renal = tested on: 786-0 renal
BT-549 breast = tested on: BT-549 breast
UACC-62 melanoma = tested on: UACC-62 melanoma
SNB-19 CNS = tested on: SNB-19 CNS
RPMI-8226 leukemia = tested on: RPMI-8226 leukemia
HL-60(TB) leukemia = tested on: HL-60(TB) leukemia
CAKI-1 renal = tested on: CAKI-1 renal
SK-MEL-28 melanoma = tested on: SK-MEL-28 melanoma
SF-539 CNS = tested on: SF-539 CNS
MCF7 breast = tested on: MCF7 breast
HS 578T breast = tested on: HS 578T breast
MDA-MB-231 breast = tested on: MDA-MB-231 breast
T-47D breast = tested on: T-47D breast
OVCAR-5 ovarian = tested on: OVCAR-5 ovarian
LOX IMVI melanoma = tested on: LOX IMVI melanoma
A549 NSCLC = tested on: A549 NSCLC
NCI-H460 lung = tested on: NCI-H460 lung
KM12 colon = tested on: KM12 colon
PC-3 prostate = tested on: PC-3 prostate
HCT-15 colon = tested on: HCT-15 colon
SF-295 CNS = tested on: SF-295 CNS
UACC-257 melanoma = tested on: UACC-257 melanoma
SN12C renal = tested on: SN12C renal
OVCAR-3 ovarian = tested on: OVCAR-3 ovarian
NCI-H23 lung = tested on: NCI-H23 lung

SMILES: CC(=O)O[C@H]1C[C@H](O[C@H]2[C@@H](O)C[C@H](O[C@H]3[C@@H](O)C[C@H](O[C@H]4CC[C@@]5(C)C(CCC6C5C[C@@H](O)[C@]5(C)[C@@H](C7=CC(=O)OC7)CC[C@]65O)C4)O[C@@H]3C)O[C@@H]2C)O[C@H](C)[C@H]1O[C@@H]1O[C@H](CO)[C@@H](O)[C@H](O)[C@H]1O (some centres undefined)
- GI50 (U251 CNS): 29.8 nM and 113 nM
- TGI (U251 CNS): 91 nM and 234 nM
- GI50 (SK-MEL-2 melanoma): 315 nM
- TGI (SK-MEL-2 melanoma): 1000 nM
- GI50 (MDA-MB-435): 110 nM and 275 nM
- TGI (MDA-MB-435): 307 nM and 893 nM
- GI50 (NCI/ADR-RES ovarian): 23.3 nM and 76.4 nM
- TGI (NCI/ADR-RES ovarian): 86.1 nM and 250 nM
- GI50 (SF-268 CNS): 18.5 nM and 51.1 nM
- TGI (SF-268 CNS): 73.7 nM and 165 nM
- GI50 (SK-OV-3 ovarian): 28.7 nM and 160 nM
- TGI (SK-OV-3 ovarian): 99.6 nM and 314 nM
- GI50 (M14 melanoma): 103 nM and 212 nM
- TGI (M14 melanoma): 244 nM and 399 nM
- GI50 (UO-31 renal): 64.8 nM and 179 nM
- TGI (UO-31 renal): 237 nM and 343 nM
- GI50 (DU-145 prostate): 13.8 nM and 110 nM
- TGI (DU-145 prostate): 38.7 nM and 232 nM
- GI50 (SW-620 colon): 23.8 nM and 63.1 nM
- TGI (SW-620 colon): 86 nM and 302 nM
- GI50 (A498 renal): 78 nM
- TGI (A498 renal): 412 nM
- GI50 (ACHN renal): 20.4 nM and 44 nM
- TGI (ACHN renal): 69 nM and 179 nM
- GI50 (NCI-H522 lung): 10.7 nM and 37.5 nM
- TGI (NCI-H522 lung): 37.6 nM and 126 nM
- GI50 (COLO 205 colon): 284 nM
- TGI (COLO 205 colon): 676 nM
- GI50 (HOP-62 NSCLC): 19.6 nM and 65.1 nM
- TGI (HOP-62 NSCLC): 69.1 nM and 189 nM
- GI50 (HCT-116 colon): 18.2 nM and 39.4 nM
- TGI (HCT-116 colon): 64 nM and 134 nM
- GI50 (HCC-2998 colon): 73 nM and 242 nM
- TGI (HCC-2998 colon): 210 nM and 678 nM
- GI50 (K-562 leukemia): 27.2 nM
- TGI (K-562 leukemia): 204 nM
- GI50 (HT29 colon): 24.6 nM and 120 nM
- TGI (HT29 colon): 86.8 nM and 395 nM
- GI50 (NCI-H226 lung): 174 nM
- TGI (NCI-H226 lung): 314 nM
- GI50 (CCRF-CEM leukemia): 17.3 nM and 33.3 nM
- TGI (CCRF-CEM leukemia): 49.7 nM and 180 nM
- GI50 (SNB-75 CNS): 57.7 nM and 138 nM
- TGI (SNB-75 CNS): 147 nM and 304 nM
- GI50 (OVCAR-4 ovarian): 122 nM
- TGI (OVCAR-4 ovarian): 442 nM
- GI50 (MALME-3M melanoma): 21.7 nM and 183 nM
- TGI (MALME-3M melanoma): 130 nM and 469 nM
- GI50 (IGROV1 ovarian): 68.5 nM and 229 nM
- TGI (IGROV1 ovarian): 1370 nM and 1310 nM
- GI50 (SK-MEL-5 melanoma): 18.7 nM and 109 nM
- TGI (SK-MEL-5 melanoma): 69.9 nM and 233 nM
- GI50 (MOLT-4 leukemia): 11.7 nM and 25.7 nM
- TGI (MOLT-4 leukemia): 28.8 nM and 65.6 nM
- GI50 (RXF 393 renal): 15.8 nM and 63.6 nM
- TGI (RXF 393 renal): 63.6 nM and 385 nM
- GI50 (EKVX NSCLC): 22.4 nM and 56.6 nM
- TGI (EKVX NSCLC): 83.6 nM and 202 nM
- GI50 (SR leukemia): 15.1 nM and 44 nM
- TGI (SR leukemia): 97.7 nM and 281 nM
- GI50 (OVCAR-8 ovarian): 38.5 nM and 159 nM
- TGI (OVCAR-8 ovarian): 104 nM and 385 nM
- GI50 (TK-10 renal): 14.6 nM and 145 nM
- GI50 (HOP-92 NSCLC): 78.1 nM and 158 nM
- TGI (HOP-92 NSCLC): 243 nM and 612 nM
- GI50 (786-0 renal): 25.1 nM and 105 nM
- TGI (786-0 renal): 89.4 nM and 223 nM
- GI50 (BT-549 breast): 39.4 nM
- TGI (BT-549 breast): 129 nM
- GI50 (UACC-62 melanoma): 93.8 nM and 173 nM
- TGI (UACC-62 melanoma): 196 nM and 343 nM
- GI50 (SNB-19 CNS): 69.2 nM and 212 nM
- TGI (SNB-19 CNS): 256 nM and 557 nM
- GI50 (RPMI-8226 leukemia): 68.2 nM and 200 nM
- TGI (RPMI-8226 leukemia): 315 nM and 955 nM
- GI50 (HL-60(TB) leukemia): 11.2 nM
- TGI (HL-60(TB) leukemia): 28.3 nM
- GI50 (CAKI-1 renal): 29.4 nM and 81.3 nM
- TGI (CAKI-1 renal): 183 nM and 345 nM
- GI50 (SK-MEL-28 melanoma): 115 nM and 215 nM
- TGI (SK-MEL-28 melanoma): 237 nM and 496 nM
- GI50 (SF-539 CNS): 21.7 nM and 105 nM
- TGI (SF-539 CNS): 78.3 nM and 225 nM
- GI50 (MCF7 breast): 24.8 nM and 57.5 nM
- TGI (MCF7 breast): 189 nM and 694 nM
- TGI (HS 578T breast): 1640 nM
- GI50 (MDA-MB-231 breast): 238 nM and 234 nM
- TGI (MDA-MB-231 breast): 1350 nM and 652 nM
- GI50 (T-47D breast): 22.8 nM and 166 nM
- TGI (T-47D breast): 167 nM and 576 nM
- GI50 (OVCAR-5 ovarian): 65.8 nM and 175 nM
- TGI (OVCAR-5 ovarian): 140 nM and 327 nM
- GI50 (LOX IMVI melanoma): 26.1 nM and 81.8 nM
- TGI (LOX IMVI melanoma): 93.7 nM and 238 nM
- GI50 (A549 NSCLC): 9.03 nM and 31.9 nM
- TGI (A549 NSCLC): 16.5 nM and 108 nM
- GI50 (NCI-H460 lung): 16.5 nM and 34.5 nM
- TGI (NCI-H460 lung): 55.7 nM and 135 nM
- GI50 (KM12 colon): 31.9 nM and 161 nM
- TGI (KM12 colon): 140 nM and 382 nM
- GI50 (PC-3 prostate): 28.7 nM and 103 nM
- TGI (PC-3 prostate): 225 nM and 590 nM
- GI50 (HCT-15 colon): 58.7 nM and 200 nM
- TGI (HCT-15 colon): 174 nM and 465 nM
- GI50 (SF-295 CNS): 26.8 nM and 73.7 nM
- TGI (SF-295 CNS): 286 nM and 581 nM
- GI50 (UACC-257 melanoma): 85.2 nM and 347 nM
- TGI (UACC-257 melanoma): 162 nM and 1180 nM
- GI50 (SN12C renal): 20 nM and 47.1 nM
- TGI (SN12C renal): 581 nM and 413 nM
- GI50 (OVCAR-3 ovarian): 18.6 nM and 93.2 nM
- TGI (OVCAR-3 ovarian): 65.6 nM and 218 nM
- GI50 (NCI-H23 lung): 15.1 nM and 46.8 nM
- TGI (NCI-H23 lung): 58.6 nM and 206 nM
